Assay [1] concerns the target Carbonic anhydrase 9 (Homo sapiens, UniProt Q16790). Put plainly: Inhibition of recombinant human carbonic anhydrase 9 after 15 mins by stopped flow CO2 hydration assay.
Assay [2] addresses Carbonic anhydrase 2 (Homo sapiens, UniProt P00918). Kind of assay: Inhibition of recombinant human carbonic anhydrase 2 after 15 mins by stopped flow CO2 hydration assay.
The target of assay [3] is Carbonic anhydrase 1 (Homo sapiens, UniProt P00915). Kind of assay: Inhibition of recombinant human carbonic anhydrase 1 after 15 mins by stopped flow CO2 hydration assay.
The species named for assay [4] is Homo sapiens. Put plainly: Selectivity ratio of IC50 for recombinant human carbonic anhydrase 1 to IC50 for recombinant human carbonic anhydrase 9.
The species entered for assay [5] is Homo sapiens. Kind of assay: Selectivity ratio of IC50 for recombinant human carbonic anhydrase 2 to IC50 for recombinant human carbonic anhydrase 9.

Chain of Carbonic anhydrase 1 (P00915 whole entry): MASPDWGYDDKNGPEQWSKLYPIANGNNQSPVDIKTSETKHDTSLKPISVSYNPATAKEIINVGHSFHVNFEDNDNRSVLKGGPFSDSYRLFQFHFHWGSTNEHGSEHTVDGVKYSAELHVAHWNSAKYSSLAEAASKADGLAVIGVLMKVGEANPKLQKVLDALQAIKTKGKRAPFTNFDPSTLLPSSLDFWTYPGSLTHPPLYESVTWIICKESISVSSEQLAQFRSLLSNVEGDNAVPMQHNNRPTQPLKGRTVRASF

With `NS(=O)(=O)c1ccc(Nc2nnc(-c3ccc(Cl)cc3)c3ccccc23)cc1`, the IC50 (as a rule, the concentration needed to halve the response being measured) was greater than 3.9 µM in assay [1], greater than 10 µM in assay [2] and greater than 10 µM in assay [3].
Take `NS(=O)(=O)c1ccc(Nc2nnc(-c3ccccc3)c3ccccc23)cc1`: the IC50 was greater than 3.9 µM in assay [1], greater than 10 µM in assay [2] and greater than 10 µM in assay [3].
Take `COc1cccc(-c2nnc(Nc3ccc(S(N)(=O)=O)cc3)c3ccccc23)c1`: the results for the IC50 in assay [1], in assay [2] and in assay [3] were 3.93 µM, greater than 10 µM and greater than 10 µM, respectively.
As to `COc1cccc(-c2nnc(Nc3cccc(S(N)(=O)=O)c3)c3ccccc23)c1`, the IC50 in assay [1] was greater than 0.69 µM; in assay [2] it was 0.0618 µM; in assay [3], 0.22 µM.
`NS(=O)(=O)c1cccc(Nc2nnc(-c3ccc(Cl)cc3)c3ccccc23)c1`: the IC50 in assay [1] was greater than 0.69 µM; in assay [2], greater than 10 µM; in assay [3], greater than 10 µM.
Consider `COc1ccc(-c2nnc(Nc3cccc(S(N)(=O)=O)c3)c3ccccc23)cc1`, for which the results for the IC50 in assay [1], in assay [2] and in assay [3] were greater than 0.69 µM, greater than 10 µM and greater than 10 µM, respectively.
For the compound `NS(=O)(=O)c1ccc(Nc2nnc(-c3cccc(S(N)(=O)=O)c3)c3ccccc23)cc1`, the Ratio IC50 in assay [4] was greater than 1000; in assay [5] it was 24.5. In addition, the values for the IC50 in assay [1], in assay [2] and in assay [3] were 0.0185 µM, 0.455 µM and greater than 10 µM, respectively.
On to `Cc1cc(-c2nnc(Nc3ccc(S(N)(=O)=O)cc3)c3ccccc23)ccc1S(N)(=O)=O`, for which the results for the Ratio IC50 in assay [4] and in assay [5] were 25.7 and 8.1, respectively. For the same compound, the 50% inhibitory concentration (IC50) stood at 0.0033 µM in assay [1], 0.0268 µM in assay [2] and 0.0857 µM in assay [3].
Take `Nc1ccc(Nc2nnc(-c3cccc(S(N)(=O)=O)c3)c3ccccc23)cc1`: the Ratio IC50 is greater than 100 in assay [4] and 5.3 in assay [5]. In addition, the IC50 in assay [1] is 0.0283 µM; in assay [2], 0.147 µM; in assay [3], greater than 10 µM.
In the case of `NS(=O)(=O)c1ccc(Nc2nnc(-c3ccc(C(F)(F)F)cc3)c3ccccc23)cc1`, the values for the IC50 in assay [1], in assay [2] and in assay [3] were greater than 3.9 µM, greater than 10 µM and greater than 10 µM, respectively.
With `CC(C)(C)c1ccc(Nc2nnc(-c3cccc(S(N)(=O)=O)c3)c3ccccc23)cc1`, the Ratio IC50 in assay [4] and in assay [5] was greater than 100 in each case. Besides, the IC50 in assay [1] was 0.029 µM; in assay [2] it was greater than 10 µM; in assay [3], greater than 10 µM.
As for `NS(=O)(=O)c1cccc(Nc2nnc(-c3ccc(C(F)(F)F)cc3)c3ccccc23)c1`, the values for the IC50 in assay [1], in assay [2] and in assay [3] were 0.69 µM, greater than 10 µM and greater than 10 µM, respectively.
`NS(=O)(=O)c1cccc(Nc2nnc(-c3ccccc3)c3ccccc23)c1`: the IC50 was greater than 0.69 µM in assay [1], greater than 10 µM in assay [2] and greater than 10 µM in assay [3].
On to `Cc1ccc(-c2nnc(Nc3ccc(S(N)(=O)=O)cc3)c3ccccc23)cc1S(N)(=O)=O`, for which the Ratio IC50 in assay [4] was greater than 10000; in assay [5], 1140. Further, the values for the IC50 in assay [1], in assay [2] and in assay [3] were 0.00048 µM, 0.547 µM and greater than 10 µM, respectively.

(Values after ChEMBL document CHEMBL2331543, “Optimization of heterocyclic substituted benzenesulfonamides as novel carbonic anhydrase IX inhibitors and their structure activity relationship” (Eur J Med Chem, 2013).)
